Measured values as given in patent publication US20240409585A1, “MACROCYCLIC IMMUNOMODULATORS” (priority 2021, published 2024).
Bridge positions count the residues as written; N and C are the ends. Square brackets hold non-standard residues; d marks the D form. Peptide text beside a SMILES is read from it. * marks the point of attachment. ξ: configuration not given here. Gly(1-amidinopiperidin-4-yl) = N=C(N)N1CCC([C@H](N)C(=O)O)CC1; Bip(3'-COOH) = N[C@@H](Cc1ccc(-c2cccc(C(=O)O)c2)cc1)C(=O)O; Phe(4-COOH) = N[C@@H](Cc1ccc(C(=O)O)cc1)C(=O)O; Phe(4-CH2NH2) = NCc1ccc(C[C@H](N)C(=O)O)cc1; Bip = N[C@@H](Cc1ccc(-c2ccccc2)cc1)C(=O)O; Phe(3-Me) = Cc1cccc(C[C@H](N)C(=O)O)c1; Phe(4-F) = N[C@@H](Cc1ccc(F)cc1)C(=O)O; Bta = N[C@@H](Cc1csc2ccccc12)C(=O)O; Val(3-OH) = CC(C)(O)[C@H](N)C(=O)O; 4Pal = N[C@@H](Cc1ccncc1)C(=O)O; Cha = N[C@@H](CC1CCCCC1)C(=O)O; Cit = NC(=O)NCCC[C@H](N)C(=O)O; Ile(3ξ) = CCC(C)[C@H](N)C(=O)O; Thr(3ξ) = CC(O)[C@H](N)C(=O)O; ξCha = NC(CC1CCCCC1)C(=O)O; NMeS = CN[C@@H](CO)C(=O)O; hSer = N[C@@H](CCO)C(=O)O; Carboxymethyl = O=C(O)C*; NMeA = CN[C@@H](C)C(=O)O; Orn = NCCC[C@H](N)C(=O)O; Dab = NCC[C@H](N)C(=O)O; Dap = NC[C@H](N)C(=O)O

Biological target: T1, PE-labeled human PD-L1-Ig binding to Jurkat cell line over-expressing human PD-1 (Jurkat-PD-1) (Homo sapiens, UniProt Q15116)
T1 construct: expressed in transfected cells; host or cells: Jurkat
T1 sequence (Q15116 25-288): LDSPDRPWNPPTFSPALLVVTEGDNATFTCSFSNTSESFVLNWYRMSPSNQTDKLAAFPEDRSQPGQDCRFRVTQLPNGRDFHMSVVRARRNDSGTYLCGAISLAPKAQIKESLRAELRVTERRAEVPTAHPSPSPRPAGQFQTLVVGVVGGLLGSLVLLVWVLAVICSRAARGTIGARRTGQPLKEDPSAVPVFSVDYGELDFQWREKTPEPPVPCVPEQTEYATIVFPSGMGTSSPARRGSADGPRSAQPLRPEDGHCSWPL
Experiment: Jurkat-PD-1 Cell Binding High-Content Screening Assay (CBA): Method 1
Settings: Jurkat-hPD-1 cells, PE-labeled PD-L1-Ig 20 nM final; read-out: Jurkat HPDL1 PD1 IC50 (uM) (Method 1)

Molecule `Cc1cccc(C[C@@H]2NC(=O)[C@H](CC(=O)O)NC(=O)[C@H](Cc3ccncc3)NC(=O)[C@H](CN)NC(=O)CSC[C@@H](C(=O)N[C@@H](C)C(N)=O)NC(=O)[C@H]([C@@H](C)O)NC(=O)[C@H](C(C)C)NC(=O)[C@H](CC(C)C)NC(=O)[C@H](CCN)NC(=O)[C@@H](CC(C)C)NC(=O)[C@H](C)N(C)C(=O)[C@H](CCCNC(N)=O)NC(=O)[C@H](Cc3ccc(-c4ccccc4)cc3)NC(=O)[C@H](C(C)C)NC2=O)c1` [Compound 1546] ({CH2CO}-[Dap][4Pal]D[Phe(3-Me)]V[Bip][Cit][NMeA][dL][Dab]LVTCA-NH2; thioether N-14) has an IC50 of 0.02 µM.
`Cc1cccc(C[C@@H]2NC(=O)[C@H](CC(=O)O)NC(=O)[C@H](Cc3ccc(OCC(=O)O)cc3)NC(=O)[C@H](CN)NC(=O)CSC[C@@H](C(=O)N[C@@H](C)C(N)=O)NC(=O)[C@H](CO)NC(=O)[C@H](C(C)C)NC(=O)[C@H](CC(C)C)NC(=O)[C@H](CC(N)=O)NC(=O)[C@@H](C)NC(=O)[C@H](C)N(C)C(=O)[C@H](C(C)C)NC(=O)[C@H](Cc3ccc(-c4ccccc4)cc3)NC(=O)[C@H](CC(C)C)NC2=O)c1` [Compound 1582] ({CH2CO}-[Dap]Y(Carboxymethyl)D[Phe(3-Me)]L[Bip]V[NMeA][dA]NLVSCA-NH2; thioether N-14) gave an IC50 of 0.02 µM.
`CCC(C)[C@@H]1NC(=O)[C@H](Cc2ccc(-c3ccccc3)cc2)NC(=O)[C@H](C(C)C)NC(=O)[C@H](Cc2c[nH]c3ccccc23)NC(=O)[C@H](CC(N)=O)NC(=O)[C@H](Cc2ccc(-c3cccc(C(=O)O)c3)cc2)NC(=O)[C@H](Cc2ccncc2)NC(=O)CSC[C@@H](C(=O)N[C@@H](C)C(=O)N[C@@H](CCCCN)C(N)=O)NC(=O)[C@H](C(C)O)NC(=O)[C@H](C(C)C)NC(=O)C(CC2CCCCC2)NC(=O)[C@H](CC(N)=O)NC(=O)[C@@H](CC(C)C)NC(=O)[C@H](C)N(C)C1=O` (stereo partly drawn) [Compound 2019] ({CH2CO}-[4Pal][Bip(3'-COOH)]NWV[Bip][Ile(3ξ)][NMeA][dL]N[ξCha]V[Thr(3ξ)]CAK-NH2; thioether N-14) was tested, and the IC50 was 0.28 µM.
`Cc1cccc(C[C@@H]2NC(=O)[C@H](CC(=O)O)NC(=O)[C@H](Cc3ccc(C(=O)O)cc3)NC(=O)[C@H](Cc3ccncc3)NC(=O)CSC[C@@H](C(N)=O)NC(=O)[C@H](CCCN)NC(=O)[C@H](C(C)C)NC(=O)[C@H](CC3CCCCC3)NC(=O)[C@H](CCN)NC(=O)[C@@H](CC(C)C)NC(=O)[C@H](C)N(C)C(=O)[C@H](CCCNC(N)=O)NC(=O)[C@H](Cc3ccc(-c4ccccc4)cc3)NC(=O)[C@H](C(C)C)NC2=O)c1` [Compound 1897] ({CH2CO}-[4Pal][Phe(4-COOH)]D[Phe(3-Me)]V[Bip][Cit][NMeA][dL][Dab][Cha]V[Orn]C-NH2; thioether N-14) showed an IC50 of 0.01 µM.
With `CC(C)C[C@@H]1NC(=O)[C@H](Cc2c[nH]c3ccccc23)NC(=O)[C@H](CC(=O)O)NC(=O)[C@H](Cc2ccc(O)cc2)NC(=O)[C@H](CC(N)=O)NC(=O)CSC[C@@H](C(=O)N[C@@H](C)C(N)=O)NC(=O)[C@H](CO)NC(=O)[C@H](C(C)C)NC(=O)[C@H](CC(C)C)NC(=O)[C@H](CC(N)=O)NC(=O)[C@@H](C)NC(=O)[C@H](C)N(C)C(=O)[C@H](C(C)C)NC(=O)[C@H](Cc2ccc(-c3ccccc3)cc2)NC1=O` [Compound 1762] ({CH2CO}-NYDWL[Bip]V[NMeA][dA]NLVSCA-NH2; thioether N-14) the IC50 was 0.04 µM.
In the case of `Cc1cccc(C[C@@H]2NC(=O)[C@H](CC(=O)O)NC(=O)[C@H](Cc3ccc(OCC(=O)O)cc3)NC(=O)[C@H](Cc3ccc(OCC(=O)O)cc3)NC(=O)CSC[C@@H](C(=O)N[C@@H](C)C(N)=O)NC(=O)[C@H](CO)NC(=O)[C@H](Cc3ccccc3)NC(=O)[C@H](CC(C)C)NC(=O)[C@H](CC(N)=O)NC(=O)[C@@H](CC(C)C)NC(=O)[C@H](C)N(C)C(=O)[C@H](Cc3ccccc3)NC(=O)[C@H](Cc3ccc(-c4ccccc4)cc3)NC(=O)[C@H](CC(C)C)NC2=O)c1` [Compound 1587] ({CH2CO}-Y(Carboxymethyl)Y(Carboxymethyl)D[Phe(3-Me)]L[Bip]F[NMeA][dL]NLFSCA-NH2; thioether N-14), the IC50 is reported as 0.7 µM.
In the case of `CC(C)C[C@H]1NC(=O)[C@H](C)N(C)C(=O)[C@H](C(C)C)NC(=O)[C@H](Cc2ccc(-c3ccccc3)cc2)NC(=O)[C@H](C(C)C)NC(=O)[C@H](Cc2c[nH]c3ccccc23)NC(=O)[C@H](CC(=O)O)NC(=O)[C@H](Cc2ccc(O)cc2)NC(=O)[C@H](CN)NC(=O)CSC[C@@H](C(=O)N[C@@H](C)C(N)=O)NC(=O)[C@H]([C@@H](C)O)NC(=O)[C@H](C(C)C)NC(=O)[C@H](CC2CCCCC2)NC(=O)[C@H](CCN)NC1=O` [Compound 1506] ({CH2CO}-[Dap]YDWV[Bip]V[NMeA][dL][Dab][Cha]VTCA-NH2; thioether N-14), the IC50 is reported as 0.02 µM.
In the case of `Cc1cccc(C[C@@H]2NC(=O)[C@H](CC(=O)O)NC(=O)[C@H](Cc3ccc(OCC(=O)O)cc3)NC(=O)[C@H](Cc3ccncc3)NC(=O)CSC[C@@H](C(=O)N[C@@H](CCN)C(N)=O)NC(=O)[C@H](C(C)O)NC(=O)[C@H](C(C)(C)O)NC(=O)[C@H](CC3CCCCC3)NC(=O)[C@H](CCN)NC(=O)[C@@H](CC(C)C)NC(=O)[C@H](C)N(C)C(=O)[C@H](Cc3ccc(OCC(=O)O)cc3)NC(=O)[C@H](Cc3ccc(-c4ccccc4)cc3)NC(=O)[C@H](Cc3ccc(C(=O)O)cc3)NC2=O)c1` (stereo partly drawn) [Compound 2146] ({CH2CO}-[4Pal]Y(Carboxymethyl)D[Phe(3-Me)][Phe(4-COOH)][Bip]Y(Carboxymethyl)[NMeA][dL][Dab][Cha][Val(3-OH)][Thr(3ξ)]C[Dab]-NH2; thioether N-14), the IC50 is reported as 0.01 µM.
Molecule `Cc1cccc(C[C@@H]2NC(=O)[C@H](CC(=O)O)NC(=O)[C@H](Cc3ccc(C(=O)O)cc3)NC(=O)[C@H](Cc3ccc(OCC(=O)O)cc3)NC(=O)CSC[C@@H](C(N)=O)NC(=O)[C@H](CO)NC(=O)[C@H](C(C)C)NC(=O)[C@H](CC(C)C)NC(=O)[C@H](Cc3c[nH]cn3)NC(=O)[C@@H](CC(C)C)NC(=O)[C@H](C)N(C)C(=O)[C@H](C(C)C)NC(=O)[C@H](Cc3ccc(-c4ccccc4)cc3)NC(=O)[C@H](Cc3ccc(CN)cc3)NC2=O)c1` [Compound 1876] ({CH2CO}-Y(Carboxymethyl)[Phe(4-COOH)]D[Phe(3-Me)][Phe(4-CH2NH2)][Bip]V[NMeA][dL]HLVSC-NH2; thioether N-14) has an IC50 of 0.34 µM.
`CC(C)C[C@@H]1NC(=O)[C@H](CCO)NC(=O)[C@@H](CC(C)C)NC(=O)[C@H](C)N(C)C(=O)[C@H](CCCNC(N)=O)NC(=O)[C@H](Cc2ccc(-c3ccccc3)cc2)NC(=O)[C@H](C(C)C)NC(=O)[C@H](Cc2c[nH]c3ccccc23)NC(=O)[C@H](CC(=O)O)NC(=O)[C@H](Cc2ccc(O)cc2)NC(=O)[C@H](Cc2ccccc2)NC(=O)CSC[C@@H](C(=O)N[C@@H](C)C(N)=O)NC(=O)[C@H](C(C)O)NC(=O)[C@H](C(C)C)NC1=O` (stereo partly drawn) [Compound 2032] ({CH2CO}-FYDWV[Bip][Cit][NMeA][dL][hSer]LV[Thr(3ξ)]CA-NH2; thioether N-14) showed an IC50 of 0.05 µM.
In the case of `CC(C)C[C@@H]1NC(=O)[C@H](CCCNC(=N)N)NC(=O)[C@@H](CC(C)C)NC(=O)[C@H](C)N(C)C(=O)[C@H](CCCNC(=N)N)NC(=O)[C@H](Cc2ccc(-c3ccccc3)cc2)NC(=O)[C@H](C(C)C)NC(=O)[C@H](Cc2c[nH]c3ccccc23)NC(=O)[C@H](CC(=O)O)NC(=O)[C@H](Cc2ccc(F)cc2)NC(=O)[C@H](Cc2ccccc2)NC(=O)CSC[C@@H](C(=O)N[C@@H](C)C(N)=O)NC(=O)[C@H]([C@@H](C)O)NC(=O)[C@H](C(C)C)NC1=O` [Compound 1080] ({CH2CO}-F[Phe(4-F)]DWV[Bip]R[NMeA][dL]RLVTCA-NH2; thioether N-14), the IC50 is reported as 0.14 µM.
`Cc1cccc(C[C@@H]2NC(=O)[C@H](CC(=O)O)NC(=O)[C@H](Cc3ccc(OCC(=O)O)cc3)NC(=O)[C@H]([C@@H](C)O)NC(=O)CSC[C@@H](C(N)=O)NC(=O)[C@H](CCC(=O)O)NC(=O)[C@H](C(C)C)NC(=O)[C@H](CC3CCCCC3)NC(=O)[C@H](CC(N)=O)NC(=O)[C@@H](CC(C)C)NC(=O)[C@H](C)N(C)C(=O)[C@H](Cc3ccc(OCC(=O)O)cc3)NC(=O)[C@H](Cc3ccc(-c4ccccc4)cc3)NC(=O)[C@H](Cc3ccc(OCC(=O)O)cc3)NC2=O)c1` [Compound 1679] ({CH2CO}-TY(Carboxymethyl)D[Phe(3-Me)]Y(Carboxymethyl)[Bip]Y(Carboxymethyl)[NMeA][dL]N[Cha]VEC-NH2; thioether N-14) gave an IC50 of 0.23 µM.
`CC(C)C[C@@H]1NC(=O)[C@H](CCCNC(=N)N)NC(=O)[C@H](Cc2csc3ccccc23)NC(=O)[C@H](C)N(C)C(=O)[C@H](CCCN)NC(=O)[C@H](Cc2ccc(-c3ccccc3)cc2)NC(=O)[C@H](C(C)C)NC(=O)[C@H](Cc2c[nH]c3ccccc23)NC(=O)[C@H](CC(=O)O)NC(=O)[C@H](Cc2ccc(O)cc2)NC(=O)[C@H](Cc2ccccc2)NC(=O)CSC[C@@H](C(=O)N[C@@H](C)C(N)=O)NC(=O)[C@H]([C@@H](C)O)NC(=O)[C@H](C(C)C)NC1=O` [Compound 1124] ({CH2CO}-FYDWV[Bip][Orn][NMeA][Bta]RLVTCA-NH2; thioether N-14) showed an IC50 of 0.69 µM.
Molecule `CC(C)C[C@@H]1NC(=O)[C@H](CCN)NC(=O)[C@@H](CC(C)C)NC(=O)[C@H](CO)N(C)C(=O)[C@H](C(C)C)NC(=O)[C@H](Cc2ccc(-c3ccccc3)cc2)NC(=O)[C@H](C(C)C)NC(=O)[C@H](Cc2c[nH]c3ccccc23)NC(=O)[C@H](CC(=O)O)NC(=O)[C@H](Cc2ccc(O)cc2)NC(=O)[C@H](CC(N)=O)NC(=O)CSC[C@@H](C(=O)N[C@@H](C)C(N)=O)NC(=O)[C@H]([C@@H](C)O)NC(=O)[C@H](C(C)C)NC1=O` [Compound 1370] ({CH2CO}-NYDWV[Bip]V[NMeS][dL][Dab]LVTCA-NH2; thioether N-14) has an IC50 of 0.01 µM.
`CC(C)C[C@@H]1NC(=O)[C@H](CCN)NC(=O)[C@@H](CC(C)C)NC(=O)[C@H](C)N(C)C(=O)[C@H](CCCNC(N)=O)NC(=O)[C@H](Cc2ccc(-c3ccccc3)cc2)NC(=O)[C@H](C(C)C)NC(=O)[C@H](Cc2c[nH]c3ccccc23)NC(=O)[C@H](CC(=O)O)NC(=O)[C@H](Cc2ccc(O)cc2)NC(=O)[C@H](C2CCN(C(=N)N)CC2)NC(=O)CSC[C@@H](C(=O)N[C@@H](C)C(N)=O)NC(=O)[C@H](C(C)O)NC(=O)[C@H](C(C)C)NC1=O` (stereo partly drawn) [Compound 2038] ({CH2CO}-[Gly(1-amidinopiperidin-4-yl)]YDWV[Bip][Cit][NMeA][dL][Dab]LV[Thr(3ξ)]CA-NH2; thioether N-14) gave an IC50 of 0.07 µM.
